According to Sander's compilation of Henry's law constants (doi:10.1016/s0021-9673(00)91567-x):
Values belong to the compound of their own block, whether it stands above or below them.

Assay: Henry solubility constant Hcp at 298.15 K (mol/(m3 Pa))
Conditions: reference: Przyjazny et al. (1983)

SMILES: CCCS [1-propanethiol]
Henry solubility constant Hcp: 0.0024

SMILES: CC(C)SC(C)C [di-(2-propyl)-sulfide]
Henry solubility constant Hcp: 0.003

SMILES: CCSSCC [diethyl disulfide]
Henry solubility constant Hcp: 0.0063

SMILES: CS [methanethiol]
Henry solubility constant Hcp: 0.0039

SMILES: CCCSCCC [dipropyl sulfide]
Henry solubility constant Hcp: 0.0033

Next, values leading:

Henry solubility constant Hcp: 0.0041
SMILES: Cc1cccs1 [2-methylthiophene]

Henry solubility constant Hcp: 0.0028
SMILES: CCS [ethanethiol]

Henry solubility constant Hcp: 0.0044
SMILES: c1ccsc1 [thiophene]

Henry solubility constant Hcp: 0.0022
SMILES: CCCCS [1-butanethiol]

Henry solubility constant Hcp: 0.0054
SMILES: CCSCC [diethyl sulfide]

Henry solubility constant Hcp: 0.0056
SMILES: CSC [dimethyl sulfide]
